In patent US8785488B2 (Exelixis Patent Company LLC, priority 2009, dated 2014) one finds EC50 data, which are given here for 13 molecules.

Molecules are shown by their SMILES. A value given as a limit tells only on which side of the number the result lay.

The target of the test is T1, human TGR5 (h-TGR5) (Homo sapiens, UniProt Q8TDU6).
T1 construct: expressed in transfected cells
T1 sequence (Q8TDU6 1-330): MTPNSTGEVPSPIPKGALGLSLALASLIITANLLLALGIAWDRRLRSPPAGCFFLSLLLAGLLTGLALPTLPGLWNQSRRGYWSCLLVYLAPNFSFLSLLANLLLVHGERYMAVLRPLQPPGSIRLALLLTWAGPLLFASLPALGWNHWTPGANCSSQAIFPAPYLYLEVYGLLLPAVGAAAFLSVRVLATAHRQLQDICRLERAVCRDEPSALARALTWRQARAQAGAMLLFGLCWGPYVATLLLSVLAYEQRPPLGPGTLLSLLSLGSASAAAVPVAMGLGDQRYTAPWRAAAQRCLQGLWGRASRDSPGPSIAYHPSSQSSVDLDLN
The experiment in a line: TGR5/CRE-Luciferiase Assay (HEK 293 hTGR5/CRE-Luc cells). Format: cell-based. Conditions: h-TGR5 CRE-Luc EC50, Table 1; read-out: CRE-Luc (EC50). In outline:
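HEK293 cells stably carrying hTGR5 and a CRE-luciferase reporter were exposed to serially diluted compounds (diluted in DMEM with 5% DMSO) for 6 h. Cells were then lysed in luciferase buffer, luminescence was read, and EC50 values were derived from dose-response curves.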

For the molecule `CC(C)(c1ccc(Cl)c(Cl)c1)c1cnc(SCc2cc(S(N)(=O)=O)ccc2Cl)n1-c1ccc(F)cc1` [4-chloro-3-[({5-[1-(3,4-dichlorophenyl)-1-methylethyl]-1-(4-fluorophenyl)-1H-imidazol-2-yl}thio)methyl]benzenesulfonamide], the EC50 – broadly, the concentration needed to bring the measured effect to its halfway point – lay in the range of 100 to 1000 nM. The same measure for `CC(C)(c1ccc(Cl)c(Cl)c1)c1cnc(SCC2CCNCC2)n1-c1ccc(F)cc1` [4-[({5-[1-(3,4-dichlorophenyl)-1-methylethyl]-1-(4-fluorophenyl)-1H-imidazol-2-yl}thio)methyl]piperidine]: 1000 to 10000 nM; for `CC(C)(c1ccc(Cl)c(Cl)c1)c1cnc(S(=O)(=O)Cc2ccc(F)c(Cl)c2)n1-c1ccc(F)cc1` [2-{[(3-chloro-4-fluorophenyl)methyl]sulfonyl}-5-[1-(3,4-dichlorophenyl)-1-methylethyl]-1-(4-fluorophenyl)-1H-imidazole]: 100 to 1000 nM. The same measure for `CC(C)(c1ccc(Cl)c(Cl)c1)c1cnc(SCc2ccc(C(=N)N)cc2Cl)n1-c1ccc(F)cc1` [3-chloro-4-[({5-[1-(3,4-dichlorophenyl)-1-methylethyl]-1-(4-fluorophenyl)-1H-imidazol-2-yl}thio)methyl]benzenecarboximidamide]: 100 to 1000 nM; for `CC(C)(c1ccc(Cl)c(Cl)c1)c1cnc(SCc2ccc(S(N)(=O)=O)c(F)c2)n1-c1ccc(F)cc1` [4-[({5-[1-(3,4-dichlorophenyl)-1-methylethyl]-1-(4-fluorophenyl)-1H-imidazol-2-yl}thio)methyl}-2-fluorobenzenesulfonamide]: 100 to 1000 nM. Regarding `CC(C)(c1ccc(Cl)c(Cl)c1)c1cnc(SCc2ccc(-c3nnn[nH]3)c(F)c2)n1-c1ccc(F)cc1` [5-{4-[({5-[1-(3,4-dichlorophenyl)-1-methylethyl]-1-(4-fluorophenyl)-1H-imidazol-2-yl}thio)methyl]-2-fluorophenyl}-1H-tetrazole], the half-maximal effective concentration (EC50) is 100 to 1000 nM. Regarding `CC(C)(c1ccc(Cl)c(Cl)c1)c1cnc(COc2ncc(C(F)(F)F)cc2Cl)n1-c1ccc(F)cc1` [3-chloro-2-[({5-[1-(3,4-dichlorophenyl)-1-methylethyl]-1-(4-fluorophenyl)-1H-imidazol-2-yl}methyl)oxy]-5-(trifluoromethyl)pyridine], the EC50 was 1000 to 10000 nM. The same measure for `CC(C)(c1ccc2c(c1)OCCO2)c1cnc(SCc2ccc(F)cc2Cl)n1-c1ccc(F)cc1` [2-{[(2-chloro-4-fluorophenyl)methyl]thio}-5-[1-(2,3-dihydro-1,4-benzodioxin-6-yl)-1-methylethyl]-1-(4-fluorophenyl)-1H-imidazole]: below 100 nM; for `CC(C)(c1ccc(F)c(F)c1)c1cnc(SCc2ccc(F)cc2Cl)n1-c1ccc(F)cc1` [2-{[(2-chloro-4-fluorophenyl)methyl]thio}-5-[1-(3,4-difluorophenyl)-1-methylethyl]-1-(4-fluorophenyl)-1H-imidazole]: 100 to 1000 nM; for `CC(C)(c1ccc(Cl)c(Cl)c1)c1cnc(SCc2c(F)cccc2Cl)n1-c1ccc(Cl)cc1Cl` [2-{[(2-chloro-6-fluorophenyl)methyl]thio}-1-(2,4-dichlorophenyl)-5-[1-(3,4-dichlorophenyl)-1-methylethyl]-1H-imidazole]: 1000 to 10000 nM. Take `CC(C)(c1ccc(Cl)c(Cl)c1)c1cnc(SCc2c(Cl)cccc2Cl)n1-c1ccc(F)cc1` [5-[1-(3,4-dichlorophenyl)-1-methylethyl]-2-{[(2,6-dichlorophenyl)methyl]thio}-1-(4-fluorophenyl)-1H-imidazole]: the EC50 lay within 100 to 1000 nM. The same measure for `CC(C)(c1ccc(F)cc1)c1cnc(SCc2c(F)cccc2Cl)n1-c1ccc(F)cc1` [2-{[(2-chloro-6-fluorophenyl)methyl]thio}-1-(4-fluorophenyl)-5-[1-(4-fluorophenyl)-1-methylethyl]-1H-imidazole]: 100 to 1000 nM. The same measure for `CC(C)(c1ccc(F)c(F)c1)c1cnc(SCc2c(F)cc(C(=O)O)cc2Cl)n1-c1ccc(F)cc1` [3-chloro-4-[({5-[1-(3,4-difluorophenyl)-1-methylethyl]-1-(4-fluorophenyl)-1H-imidazol-2-yl}thio)methyl]-5-fluorobenzoic acid]: 100 to 1000 nM.
